pIC50: −log10 of the molar value.
Target: Delta-type opioid receptor (Mus musculus) (UniProt P32300)
Experiment: Ability to induce 50% of maximal effect in mouse vas deferens expressing Opioid receptor delta 1

Chain of Delta-type opioid receptor (Mus musculus) (P32300 whole entry, looked up): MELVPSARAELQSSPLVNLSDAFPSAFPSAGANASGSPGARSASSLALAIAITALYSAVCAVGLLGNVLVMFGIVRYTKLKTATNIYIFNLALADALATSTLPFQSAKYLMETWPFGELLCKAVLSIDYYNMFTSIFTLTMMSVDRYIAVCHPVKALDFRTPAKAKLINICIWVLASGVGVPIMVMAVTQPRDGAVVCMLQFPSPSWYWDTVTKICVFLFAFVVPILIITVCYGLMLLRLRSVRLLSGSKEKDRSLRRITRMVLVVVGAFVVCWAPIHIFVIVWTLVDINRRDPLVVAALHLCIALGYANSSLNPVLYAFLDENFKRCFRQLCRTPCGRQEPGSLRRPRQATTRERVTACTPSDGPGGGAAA

SMILES: CC1C2Cc3ccc(O)cc3C1(C)CCN2CCc1ccccc1 (stereo unspecified)
- pIC50: 8.10
